Source: patent publication US20100331305A1, “OXO-HETEROCYCLE FUSED PYRIMIDINE COMPOUNDS, COMPOSITIONS AND METHODS OF USE” (Genentech, Inc., priority 2009, published 2010)

Experiments:
PC3 cells = experiment: In vitro cell proliferation assay; assay type: cell-based, human; conditions: Homo sapiens, PC-3, with PC3 cells; values tied to compounds by order of Table 1
In short: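 PC3 (or MDAMB361.1) cells, ~10^3/well, settled overnight, then exposed to compound for 3 days; viability read by CellTiter-Glo luminescence (RLU). Alternatively, 4-day compound exposure followed by Alamar Blue for 6 h, fluorescence 544/590 nm; EC50 from sigmoidal dose-response fit.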

[1] = test system: AKT serine-473 phosphorylation in PC-3 cells; experiment: In vitro phospho-AKT serine 473 cellular assay; assay type: cell-based; conditions: Homo sapiens; PC-3 cells stimulated with EGF; first nine specific compounds; read-out: EC50 activity level, inhibition of AKT serine-473 phosphorylation
Experimental: b. In Vitro Phospho-AKT Serine 473 Cellular Assay
The assay measures a test compound's inhibition of AKT serine-473 phosphorylation in human prostate adenocarcinoma derived PC-3 (ATCC CRL-1435) cells that have been stimulated with epidermal growth factor (EGF).
The PC-3 cell line is maintained in RPMI1640 media supplemented with 10% FBS, 2 mM Glutamine, and 10 mM HEPES pH 7.4 at 37° C. in a 5% CO2 humidified incubator.
Cells are seeded in 384-well plates at 7,000 cells/well in 50 μl growth media. After 24 hours, growth media is removed and replaced with RPMI1640 containing no FBS. Cells are treated with 10 concentrations of test compounds or DMSO alone for controls (final DMSO concentration 0.5%) and incubated at 37° C. for 30 minutes. Cells are then stimulated for 10 minutes with 100 ng/ml EGF (final concentration). One column of controls is not stimulated with EGF to observe the signal ratio between stimulated and non-stimulated cells. After 10 minutes, compounds and stimulation media are removed and replaced with 25 μl lysis buffer containing protease inhibitors and phosphatase inhibitors. This buffer contains detergent to bring about cellular disruption. […] Following the transfer of lysate to the MSD plate, AKT in the lysate is captured on the coated antibody by incubation on a shaker at 4° C. for 16 hours. Following the capture step the plate is washed and then incubated for two hours with an antibody to S473 phosphorylated AKT which is conjugated with a Sulfo-Tag. This tag gives a signal when in proximity to the electrode on the base of the MSD plate. Binding the tagged antibody to the captured protein allow detection on a MSD reader.
EC50 values are calculated using MDL Assay Explorer 3.0.1.8 fitting a sigmoidal curve with a variable slope.

[2] = target: mTOR enzyme (mTOR(1360-2549)+GBL) (Homo sapiens, UniProt P42345); experiment: In vitro mTOR kinase assay (TR-FRET); assay type: biochemical; conditions: 0.25 nM mTOR+GBL, 8 uM ATP; values tied to compounds by order of Table 1; 'x or y' = two alternative values for separated diastereomers of unassigned stereochemistry; read-out: activity level (Ki) in the mTOR kinase assay
In short: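 Compounds were tested in 10-point dose curves from 10 uM top final concentration. The reaction was stopped with 2 nM Tb-anti-p4E-BP1 (T37/T46) antibody plus 10 mM EDTA for 30 minutes, and phospho-4E-BP1 was detected by TR-FRET. Ki apparent was fitted with the Morrison ATP-competitive tight-binding equation.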

mTOR enzyme (mTOR(1360-2549)+GBL), sequence (P42345 1360-2549, species assumed): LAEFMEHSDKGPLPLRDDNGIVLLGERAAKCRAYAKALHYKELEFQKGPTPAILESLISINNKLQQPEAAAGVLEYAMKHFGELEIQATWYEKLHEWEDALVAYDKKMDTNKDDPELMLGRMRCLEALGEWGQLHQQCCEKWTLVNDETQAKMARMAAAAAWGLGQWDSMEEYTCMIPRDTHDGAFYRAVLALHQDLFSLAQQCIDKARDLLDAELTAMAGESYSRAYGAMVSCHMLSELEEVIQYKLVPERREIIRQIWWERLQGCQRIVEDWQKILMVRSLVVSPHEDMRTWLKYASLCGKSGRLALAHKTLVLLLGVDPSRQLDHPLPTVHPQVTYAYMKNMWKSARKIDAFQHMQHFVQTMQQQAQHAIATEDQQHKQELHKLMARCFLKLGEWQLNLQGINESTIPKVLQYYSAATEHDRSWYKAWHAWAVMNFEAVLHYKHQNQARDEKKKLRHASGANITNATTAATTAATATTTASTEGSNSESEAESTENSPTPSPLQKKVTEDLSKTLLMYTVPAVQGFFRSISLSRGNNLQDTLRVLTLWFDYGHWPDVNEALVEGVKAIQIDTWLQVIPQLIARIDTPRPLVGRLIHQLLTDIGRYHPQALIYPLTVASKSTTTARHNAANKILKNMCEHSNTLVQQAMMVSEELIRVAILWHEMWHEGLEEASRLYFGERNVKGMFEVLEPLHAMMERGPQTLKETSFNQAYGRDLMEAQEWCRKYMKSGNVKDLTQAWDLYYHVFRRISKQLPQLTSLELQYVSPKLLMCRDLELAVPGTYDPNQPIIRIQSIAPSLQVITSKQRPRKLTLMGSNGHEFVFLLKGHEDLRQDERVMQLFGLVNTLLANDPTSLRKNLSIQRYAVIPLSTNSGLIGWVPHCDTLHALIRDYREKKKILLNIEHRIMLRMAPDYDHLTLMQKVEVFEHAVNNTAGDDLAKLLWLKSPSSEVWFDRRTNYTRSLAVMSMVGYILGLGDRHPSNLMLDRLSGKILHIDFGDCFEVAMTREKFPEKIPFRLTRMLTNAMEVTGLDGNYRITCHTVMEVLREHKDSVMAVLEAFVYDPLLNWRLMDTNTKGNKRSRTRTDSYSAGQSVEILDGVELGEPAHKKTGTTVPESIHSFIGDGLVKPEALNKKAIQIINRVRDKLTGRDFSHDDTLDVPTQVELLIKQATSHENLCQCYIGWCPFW
mTOR enzyme (mTOR(1360-2549)+GBL), sequence (Q9BVC4 whole entry partner, species assumed): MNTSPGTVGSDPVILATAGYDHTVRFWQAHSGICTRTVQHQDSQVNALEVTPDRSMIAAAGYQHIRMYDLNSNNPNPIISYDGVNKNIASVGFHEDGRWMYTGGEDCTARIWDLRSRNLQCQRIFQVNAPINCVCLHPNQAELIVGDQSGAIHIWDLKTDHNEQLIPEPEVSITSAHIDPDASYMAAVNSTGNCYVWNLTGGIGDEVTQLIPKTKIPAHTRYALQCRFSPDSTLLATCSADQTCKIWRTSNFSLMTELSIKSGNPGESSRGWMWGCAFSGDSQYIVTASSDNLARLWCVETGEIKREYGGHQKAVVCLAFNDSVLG

SMILES	EC50 (PC3 cells) [nM]	EC50 [1] [nM]	Ki [2] [nM]
CCNC(=O)Nc1ccc(-c2nc3c(c(N4CCOCC4)n2)CCCO3)cc1 [Example 15, 1-ethyl-3-(4-(4-morpholino-6,7-dihydro-5H-pyrano[2,3-d]pyrimidin-2-yl)phenyl)urea]	194	85	
CCNC(=O)Nc1ccc(-c2nc3c(c(N4CCOCC4)n2)COCC3)cc1 [Example 18, 1-ethyl-3-(4-(4-morpholino-7,8-dihydro-5H-pyrano[4,3-d]pyrimidin-2-yl)phenyl)urea]		237	
CCNC(=O)Nc1ccc(-c2nc3c(c(N4CCOC[C@@H]4C)n2)CCCO3)cc1 [Example 16, (S)-1-ethyl-3-(4-(4-(3-methylmorpholino)-6,7-dihydro-5H-pyrano[2,3-d]pyrimidin-2-yl)phenyl)urea]	231	10	2
C[C@H]1COCCN1c1nc(-c2ccc(NC(=O)NCC(F)(F)F)cc2)nc2c1COCC2 [Example 23, (S)-1-(4-(4-(3-methylmorpholino)-7,8-dihydro-5H-pyrano[4,3-d]pyrimidin-2-yl)phenyl)-3-(2,2,2-trifluoroethyl)urea]	993	49	16
CCNC(=O)Nc1ccc(-c2nc3c(c(N4CCOC[C@@H]4CC)n2)COCC3)cc1 [Example 19, (S)-1-ethyl-3-(4-(4-(3-ethylmorpholino)-7,8-dihydro-5H-pyrano[4,3-d]pyrimidin-2-yl)phenyl)urea]	88	6	1
C[C@H]1COCCN1c1nc(-c2ccc(NC(=O)Nc3ccon3)cc2)nc2c1COCC2 [Example 20, (S)-1-(isoxazol-3-yl)-3-(4-(4-(3-methylmorpholino)-7,8-dihydro-5H-pyrano[4,3-d]pyrimidin-2-yl)phenyl)urea]	94	15	2
CCNC(=O)Nc1ccc(-c2nc3c(c(N4CCOC[C@@H]4C)n2)COCC3)cc1 [Example 17, (S)-1-ethyl-3-(4-(4-(3-methylmorpholino)-7,8-dihydro-5H-pyrano[4,3-d]pyrimidin-2-yl)phenyl)urea]	175	22	4
C[C@H]1COCCN1c1nc(-c2ccc(NC(=O)Nc3cnn(C)c3)cc2)nc2c1COCC2 [Example 22, (S)-1-(1-methyl-1H-pyrazol-4-yl)-3-(4-(4-(3-methylmorpholino)-7,8-dihydro-5H-pyrano[4,3-d]pyrimidin-2-yl)phenyl)urea]	59	42	4
C[C@H]1COCCN1c1nc(-c2ccc(NC(=O)Nc3ccn(C)n3)cc2)nc2c1COCC2 [Example 21, (S)-1-(1-methyl-1H-pyrazol-3-yl)-3-(4-(4-(3-methylmorpholino)-7,8-dihydro-5H-pyrano[4,3-d]pyrimidin-2-yl)phenyl)urea]	189	108	3
CCNC(=O)Nc1ccc(-c2nc(N3CCOC[C@@H]3C)c3c(n2)[C@](C)(CCN2CCOCC2)OC3)cc1 [Example 76 eo (S), 1-ethyl-3-(4-((S)-7-methyl-4-((S)-3-methylmorpholino)-7-(2-morpholinoethyl)-5,7-dihydrofuro[3,4-d]pyrimidin-2-yl)phenyl)urea]	45		293
CCNC(=O)Nc1ccc(-c2nc(N3CCOC[C@@H]3C)c3c(n2)C(C)(CCn2ccnc2)OC3)cc1 (single isomer, unassigned) [Example 80 es (R)]	454		9
C[C@H]1COCCN1c1nc(-c2cnc(N)nc2)nc2c1CO[C@@]2(C)CCOc1ccccc1 [Example 104 gs (S), 5-((S)-7-methyl-4-((S)-3-methylmorpholino)-7-(2-phenoxyethyl)-5,7-dihydrofuro[3,4-d]pyrimidin-2-yl)pyrimidin-2-amine]	145		231
CCCC1(C)OCc2c(N3CCOC[C@@H]3C)nc(-c3ccc(NC(=O)NCC)cc3)nc21 (stereo partly drawn) [Example 83, 1-ethyl-3-(4-(7-methyl-4-((S)-3-methylmorpholino)-7-propyl-5,7-dihydrofuro[3,4-d]pyrimidin-2-yl)phenyl)urea]	84		2
CCNC(=O)Nc1ccc(-c2nc3c(c(N4CCOCC4)n2)CCC2(CC2)O3)cc1 [Example 14, 1-ethyl-3-(4-(4′-morpholino-5′,6′-dihydrospiro[cyclopropane-1,7′-pyrano[2,3-d]pyrimidine]-2′-yl)phenyl)urea]	84		3
